Assay results as given in patent US7338977B2, “Anti-viral compounds” (Aids Care Pharma Limited, priority 2003, dated 2008).
≈ marks a conversion by molar mass, not a printed value.

How the values were obtained:
[1] = target: T1, viral envelope protein gp120 interaction with the cellular receptor protein CD4 (Human immunodeficiency virus type 1 group M subtype B, UniProt P04578); experiment: biochemical; format: binding, HIV; conditions: for activity in words, compared with AC-1: summary of Table 1, both tests
T1 construct: viral envelope protein gp120
Description: (§1) Two tests were performed: Test 1 was performed using infected blood, while Test 2 used cell cultures.
All stocks solutions were made 25 mM in distilled water and tested at same concentrations.
The procedure was carried out as follows: • 1 Plastic plates were coated with cellular receptor protein CD4. • 2 The plates were washed well before adding a predetermined, appropriate quantity of viral envelope protein gp120 for binding to CD4. • 3 To see inhibition by compounds, different concentrations were added a few minutes before adding gp120. • 4 The mixture was incubated at 37° C. for binding. • 5 The plates were then flashed well and bound gp120 was detected by reaction with anti-HIV antibodies, incubated for 12 hours at 4° C. • 6 The amount of antibody bound was detected by adding anti-Human antibodies attached to an enzyme horse raddish peroxidase. • 7 After another incubation and wash, the quantity of the enzyme was measured by adding substrate o-phenyl diamine (OPD). • 8 The colour developed was read at 492 nm. • 9 All incubations took three days for adding different reagents. The percentage of inhibition by compounds, was calculated from the standard curve obtained by using different dilutions of gp120 alone. Test 2

wild-type HIV-1 (111a) = experiment: Test 2: syncytium formation in HIV-1 infected CEM cell cultures; format: cell-based; conditions: CEM cells, 4 days at 37° C., syncytium formation inhibited by 50%; for EC50: Human immunodeficiency virus 1, CCRF-CEM, 96 h
Description: as §1
The results shown in Table 1 for test 2 were obtained by testing cell cultures in accordance with the following procedure.
CEM cells were suspended at approximately 250,000 cells per milliliter of culture medium and infected with wild-type HIV-1 (111a) at approximately 100 times the 50% cell culture infective dose (CCID50) per milliliter. Then 100 μl of the infected cell suspensions were added to 200 μl microtiter plate wells containing 100 μl of an appropriate dilution of the test compounds. After 4 days incubation at 37° C. the cell cultures were microscopically examined for syncytium formation.

HIV = conditions: cited from earlier work; for REDUCTION IN VIRAL LOAD: patients, drug used on its own
[2] = human, in vivo; cited from earlier work
[3] = cited from earlier work
HIV-1 [4] = conditions: cells protected from HIV infection, cell cultures; cited from earlier work
HIV-1 [5] = experiment: Anti-HIV EC50 in cell cultures (benchmark AZT); conditions: in vitro
Excerpt: The antigen Agp120 assay—the virus related antigen—is related to the number of virus particles produced by measuring glycoprotein gp120 in infected cell cultures.
The therapeutic index is selected so as not to damage healthy cells.

cell growth = conditions: cited from earlier work

Q: Which results are given for `O=C(O)COc1c(O)c2cc(c1O)C(c1ccc(F)cc1)c1cc(c(O)c(OCC(=O)O)c1O)C(c1ccc(F)cc1)c1cc(c(O)c(OCC(=O)O)c1O)C(c1ccc(F)cc1)c1cc(c(O)c(OCC(=O)O)c1O)C2c1ccc(F)cc1` (centres unmarked) [BC130202A]?
A: EC50 [1]: 5 µM; % inhibition of gp120/CD4 binding ([1]; Conc 1.56 um): 19%; % inhibition of gp120/CD4 binding ([1]; Conc 3.125 um): 32%; % inhibition of gp120/CD4 binding ([1]; Conc 6.25 um): 46%; % inhibition of gp120/CD4 binding ([1]; Conc 12.5 um): 56%; % inhibition of gp120/CD4 binding ([1]; Conc 25 um): 70%; % inhibition of gp120/CD4 binding ([1]; Conc 50 um): 82%; % inhibition of gp120/CD4 binding ([1]; Conc 100 um): 90%; activity in words, compared with AC-1 [1]: active; EC50 (wild-type HIV-1 (111a)): 10 µg/mL (≈ 8.61 µM)

Q: Which results are given for `CC(C)c1nc(CN(C)C(=O)N[C@H](C(=O)N[C@@H](Cc2ccccc2)C[C@H](O)[C@H](Cc2ccccc2)NC(=O)OCc2cncs2)C(C)C)cs1` [Ritonavir]?
A: REDUCTION IN VIRAL LOAD (HIV): 99%; SIDE EFFECTS [2]: diarrhoea nausea,

Q: Which results are given for dextran sulphate?
A: stability after oral intake ([3]; before entry into the plasma): degrades after oral intake before entry into the plasma; oral absorption [3]: poorly absorbed orally

Q: For `Cc1ccnc2c1NC(=O)c1cccnc1N2C1CC1` [Nevirapinc], which “REDUCTION IN VIRAL LOAD” value (HIV) is on record?
A: 50–90%

Q: And the “SIDE EFFECTS” value [2]?
A: skin reaction

Q: Which results are given for `Cc1cn([C@H]2C=C[C@@H](CO)O2)c(=O)[nH]c1=O` [Stavudine]?
A: REDUCTION IN VIRAL LOAD (HIV): 50–90%; SIDE EFFECTS [2]: peripheral neuropathy

Q: For `CC(C)(C)NC(=O)[C@@H]1CN(Cc2cccnc2)CCN1C[C@@H](O)C[C@@H](Cc1ccccc1)C(=O)N[C@H]1c2ccccc2C[C@H]1O` [Indinavir], which “REDUCTION IN VIRAL LOAD” value (HIV) is on record?
A: 99%

Q: What does the source list for `Cc1cn([C@H]2C[C@H](N=[N+]=[N-])[C@@H](CO)O2)c(=O)[nH]c1=O` [Zidovudine]?
A: EC50 (HIV-1 [4]): ~0.016 µM; Therapeutic index (TC50/EC50 ratio) (HIV-1 [5]): > 62,500; CC50 (cell growth): > 1000 µM; REDUCTION IN VIRAL LOAD (HIV): 50–90%; benefit in treating HIV-infected individuals (HIV; used by itself): no benefits in treating HIV-infected individuals

Q: Which results are given for “dodecapotassium acetate of p-bromopyrogallol P—F-phenyl tetramer [AC-1]”?
A: % inhibition of gp120/CD4 binding ([1]; Conc 0.39 um): 48%; % inhibition of gp120/CD4 binding ([1]; Conc 0.78 um): 55%; % inhibition of gp120/CD4 binding ([1]; Conc 1.56 um): 62%; % inhibition of gp120/CD4 binding ([1]; Conc 3.125 um): 70%; % inhibition of gp120/CD4 binding ([1]; Conc 6.25 um): 82%; % inhibition of gp120/CD4 binding ([1]; Conc 12.5 um): 86%; % inhibition of gp120/CD4 binding ([1]; Conc 25 um): 91%; % inhibition of gp120/CD4 binding ([1]; Conc 50 um): 93%; % inhibition of gp120/CD4 binding ([1]; Conc 100 um): 96%; Test 2 EC50 (wild-type HIV-1 (111a)): 4 µg/mL

Q: With `O=C1Nc2ccc(Cl)cc2[C@@](C#CC2CC2)(C(F)(F)F)O1` [Efavirenz] as the molecule, how does the “REDUCTION IN VIRAL LOAD” value (HIV) read?
A: 50–90%

Q: What about the “SIDE EFFECTS” value [2] of the same molecule?
A: skin reaction

Q: With `CC(C)Nc1cccnc1N1CCN(C(=O)c2cc3cc(NS(C)(=O)=O)ccc3[nH]2)CC1` [Delaviridine] as the molecule, how does the “REDUCTION IN VIRAL LOAD” value (HIV) read?
A: 50–90%

Q: What about the “SIDE EFFECTS” value [2] of the same molecule?
A: skin reaction

Q: Which “REDUCTION IN VIRAL LOAD” value (HIV) does the source give for `Cc1c(O)cccc1C(=O)N[C@@H](CSc1ccccc1)[C@H](O)CN1C[C@H]2CCCC[C@H]2C[C@H]1C(=O)NC(C)(C)C` [Nelfinavir] here?
A: 99%

Q: What about the “SIDE EFFECTS” value [2] of the same molecule?
A: diarrohea, nausea

Q: With `O=C(O)COc1cc(OCC(=O)O)c2cc1C(c1ccc(F)cc1)c1cc(c(OCC(=O)O)cc1OCC(=O)O)C(c1ccc(F)cc1)c1cc(c(OCC(=O)O)cc1OCC(=O)O)C(c1ccc(F)cc1)c1cc(c(OCC(=O)O)cc1OCC(=O)O)C2c1ccc(F)cc1` (centres unmarked) [BC070202A] as the molecule, how does the EC50 [1] read?
A: 75 µM

Q: And the “% inhibition of gp120/CD4 binding” value ([1]; Conc 12.5 um)?
A: 24%

Q: What about the “% inhibition of gp120/CD4 binding” value ([1]; Conc 25 um) of the same molecule?
A: 24%

Q: And the “% inhibition of gp120/CD4 binding” value ([1]; Conc 50 um)?
A: 31%

Q: And the “% inhibition of gp120/CD4 binding” value ([1]; Conc 100 um)?
A: 54%

Q: And the “activity in words, compared with AC-1” value [1]?
A: much less active than the compound AC-1

Q: And the EC50 (wild-type HIV-1 (111a))?
A: ≥ 20 µg/mL

Q: With `O=c1[nH]cnc2c1ncn2[C@H]1CC[C@@H](CO)O1` [Didanosine] as the molecule, how does the “REDUCTION IN VIRAL LOAD” value (HIV) read?
A: 50–90%

Q: And the “SIDE EFFECTS” value [2]?
A: peripheral neuropathy, nausea vomiting, pancreatis

Q: Which “REDUCTION IN VIRAL LOAD” value (HIV) does the source give for `Nc1ccn([C@H]2CC[C@@H](CO)O2)c(=O)n1` [Zalcitabine] here?
A: 50–90%

Q: Which results are given for `CC(C)CN(C[C@@H](O)[C@H](Cc1ccccc1)NC(=O)O[C@H]1CCOC1)S(=O)(=O)c1ccc(N)cc1` [Amprenavir]?
A: REDUCTION IN VIRAL LOAD (HIV): 99%; SIDE EFFECTS [2]: severe rash

Q: For `Nc1nc(NC2CC2)c2ncn([C@H]3C=C[C@@H](CO)C3)c2n1` [Abacavir], which “REDUCTION IN VIRAL LOAD” value (HIV) is on record?
A: 50–90%

Q: Which “REDUCTION IN VIRAL LOAD” value (HIV) does the source give for `CC(C)(C)NC(=O)[C@@H]1C[C@@H]2CCCC[C@@H]2CN1C[C@@H](O)[C@H](Cc1ccccc1)NC(=O)[C@H](CC(N)=O)NC(=O)c1ccc2ccccc2n1` [Saquinavir] here?
A: 99%

Q: What about the “SIDE EFFECTS” value [2] of the same molecule?
A: loose stools, nausea,

Q: Which “SIDE EFFECTS” value [2] does the source give for `Nc1ccn([C@@H]2CS[C@H](CO)O2)c(=O)n1` [Lamivudine] here?
A: gastrointestinal
